| SMILES | melting point |
| --- | --- |
| CC(Oc1cc(-n2nc3n(c2=O)CCCC3)c(Cl)cc1Cl)C(=O)O (stereo not drawn) | 183 to 185 °C |
| COc1ccc(CN2C(=O)C(C)(c3cc(CO)ccc3Cl)c3cc(Cl)ccc32)c(OC)c1 (stereo not drawn) | 97 °C |
| O=C(O)c1cc2c(C(F)(F)F)c(F)ccc2[nH]1 | 204 to 210 °C |
| COCCO[C@@H]1c2ccn3c(Cl)c(C)nc3c2N(C(C)=O)[C@H](c2ccccc2)[C@H]1OC(=O)C(C)(C)C | 145 to 147 °C |
| COc1cccc(CCc2c(C(=O)O)ccc(OC)c2OC)c1 | 156 to 158 °C |
| CCOC(=O)c1c(Cl)c2sccc2[nH]c1=O | 206 °C |
| CCCCCCCCCSCCCN=C=O | 86 to 88 °C |
| O=C(O)[C@@H]1CCc2cc(F)ccc2O1 | 99.7 °C |
| Cc1cc(C)nc(NC(=O)NS(=O)(=O)c2ccccc2C(Cl)Cl)n1 | 195 to 197 °C |
| CC=CCn1c(C)c(C)c2cnnc(OCc3cccs3)c21 | 72 to 75 °C |
| COc1cccc2c(=O)c(C)c3sc4ccccc4nc-3c12 | 170 to 171 °C |
| COc1ccc(CCN(CCc2cccc(C(F)(F)F)c2)C(=O)CCCCC(N)=O)cc1OC | 125 to 126 °C |
| Cc1cccc(-c2nc3ccccn3c2-c2ccnc(-c3ccc(OC(F)(F)F)cc3)c2)n1 | 120 °C |
| CCOCn1c(Br)c(Br)c(C#N)c1C(F)(F)F | 65 to 67 °C |
| CCCCc1nc(C(O)C(C)C)c(C(N)=O)n1Cc1ccc(-c2ccccc2-c2nnn[nH]2)cc1 (stereo not drawn) | 155 to 157 °C |
| CCn1cc(C(=O)O)c(=O)cc1-c1ccc2c(c1)OCO2 | 269 to 270 °C |
| COc1cc2cc3c(Nc4ccc(F)c(Cl)c4)c(C#N)cnc3cc2cc1OCCCl | 137 to 159 °C |
| CCOC(=O)C=C(c1ccc(I)cc1)c1ccc(I)cc1 | 95 to 100 °C |
| FC(F)(F)Sc1ncn(-c2c(Cl)cc(C(F)(F)F)cc2Cl)c1Br | 87.5 °C |
| OC1CSC(Sc2cc(C(F)(F)F)cc(C(F)(F)F)c2)C(O)C1O (stereo not drawn) | 157 to 158 °C |
| O=c1[nH]c(COc2ccc(Cl)cc2)nc2nccnc12 | 267 to 269 °C |
| CCOC(=O)c1c(CN(CC)CC)nc2sc3c(c2c1-c1ccc(OC)c(OC)c1)CCN(C(=O)Nc1ccccc1)C3 | 154 to 155 °C |
| CCC(Oc1ccccc1OC)C(=O)OC1CC(O)C=C2C=CC(C)C(CCC3CC(O)CC(=O)O3)C21 (mixture of isomers) | 116 to 117 °C |
| CC12CCC3(CC1CCC1C2CCC2(C)C1CC(O)C2NC=O)OCCO3 (stereo not drawn) | 277 to 280 °C |
| CCCCCCC(C)(C)c1cc(OCc2ccccc2)c(C2=C(C(C)(C)C(N)=O)CCC(C)C2)c(OCc2ccccc2)c1 (stereo not drawn) | 113 to 114 °C |
| Oc1ccc(N2CCN(Cc3nc4ccccc4o3)CC2)cc1 | 155 to 156 °C |

| SMILES | melting point |
| --- | --- |
| CC12CCC3C(CC=C4CC(O)CCC43C)C1=CCC2=O (stereo not drawn) | 161 to 164 °C |
| CC(C)c1cnn2c(NCc3ccccc3)nc(Cl)cc12 | 74 to 75 °C |
| OCc1cnoc1-c1cc(Cl)ccc1Cl | 51 to 52 °C |
| CCOC(=O)Cn1c(=O)c(=O)[nH]c2ccc3ccc(-n4ccc(CNC(=O)c5ccccc5)c4)cc3c21 | > 250 °C |
| CCOC1=CCc2c(OC)ccc(OC)c2C1 | 102 to 103 °C |
| Nc1nc(N2CCC2)c2ncn(C3CC(F)C(CO)O3)c2n1 (stereo not drawn) | 127 to 129 °C |
| COC1(c2csc(Sc3ccc4c(c3)OCC/C4=N\O)c2)CCOCC1 | 137 to 138 °C |
| CC(C)CC(=O)OCC(COC(=O)CC(C)C)OCn1cnc2c(=O)[nH]c(N)nc21 | 215 to 217 °C |
| CCCCn1cccc1C(=O)N(C)C | 132 °C |
| NCCc1coc2ccc3c(c12)CCCO3 | 110 °C |
| O=C(O)CCCc1cc2nc(Cl)ccc2n1S(=O)(=O)c1ccc2snnc2c1 | 227 °C |
| COc1ccc(CN2CCC(C(O)(c3ccc(OC(F)(F)F)cc3)c3ccc(OC(F)(F)F)cc3)CC2)cc1 | 86 to 96 °C |
| Cc1nn(C)c(C(=O)N(C)C)c1[N+](=O)[O-] | 57 to 59.5 °C |
| COc1ccc2c3c([nH]c2c1)C(=S)C(CC1CCN(Cc2ccccc2)CC1)C3 (stereo not drawn) | 180 to 181 °C |
| CCCCCCOc1ccc(-c2ccc(-c3ccc(CCCC)s3)c(F)c2)cc1 | 66 °C |
| CCNc1ccc(S(=O)c2ccccc2)cc1[N+](=O)[O-] (stereo not drawn) | 122 to 124 °C |
| Nc1ccc2c(c1)c1ccccc1n2CCC(=O)NCCO | 217 to 218 °C |
| CCCCCCCCCCCNC(=S)NCCCCCCCCCCC | 70 to 72 °C |
| CCOC(=O)c1cc(-c2cn(Cc3ccccc3C#N)c(=O)n2-c2ccc(F)cc2)ccn1 | 164 °C |
| Cc1ccc(C(=O)N(c2ccccc2)c2ccc(OCCN(C)C)cc2)cc1 | 74.5 to 77.5 °C |
| COc1ccccc1CN[C@H]1CCCN[C@H]1c1ccoc1 (relative stereo) | > 247 °C |
| CN(C(=O)C(C)(C)c1cc(C(F)(F)F)cc(C(F)(F)F)c1)c1cnc(N2CCOCC2)cc1-c1ccccc1Cl | 134 to 136 °C |
| CSc1nccc(C(=NO)C(=O)c2cccc(Br)c2)n1 | 156 to 158 °C |
| COc1cccc2c1CC(COS(=O)(=O)c1ccc(C)cc1)CC2 (stereo not drawn) | 53 to 58 °C |
| Cc1cccc(NC(=O)NC(CCC(=O)O)C(=O)N(CC(=O)OC(C)(C)C)c2ccccc2)c1 (racemic) | 191 °C |
| Cn1nc(-c2ccc(Cl)cc2)nc1-c1ccncc1 | 191 °C |

| SMILES | melting point |
| --- | --- |
| Cc1cc(O)c(O)c(O)c1 | 114 to 121 °C |
| CCC(=O)NS(=O)(=O)c1ccc(C2=C(c3ccccc3)C(=O)C(C)(C)O2)cc1Cl | 191 to 192 °C |
| CCOC(=O)Cn1cnc2ccccc21 | 63 to 64 °C |
| c1ccc(Oc2ccc(OCCOn3cccn3)cc2)cc1 | 83 to 85 °C |
| CC(C)(C)OC(=O)N[C@@H]1C(=O)N(C(=O)C(=O)OC(C)(C)C)[C@@H]1CCC(=O)CO[Si](C)(C)C(C)(C)C | 102 to 103 °C |
| CC(=O)c1cc(F)c(N)c(C#N)c1F | 182 to 184 °C |
| Cc1ccc(C(=O)N2CCOCC2)cc1[N+](=O)[O-] | 108 to 110 °C |
| COC(=O)CC(C)NC(=O)c1ccc(N2CCN(c3ccncc3)CC2)cc1 (stereo not drawn) | 130 to 132 °C |
| COCc1cc(Oc2c(Cl)cc(C(F)(F)F)cc2Cl)n[nH]1 | 141 to 143 °C |
| COc1ccc2oc(Cc3ccccc3)c(CC#N)c2c1 | 69 to 70 °C |
| O=[N+]([O-])c1ccc(SCCn2cnnc2)cc1 | 162 to 165 °C |
| CC(C)(C)c1ccc([C@H]2CCCN2[S@@](=O)C(C)(C)C)cc1 | 45 to 50 °C |
| O=C(c1ccc(-c2cccc3ccccc23)cc1)N1Cc2cccn2Cc2ccccc21 | 170 to 171 °C |
| COc1cc2c(C)c(C#N)cnc2cc1OCc1cccnc1 | 206 to 210 °C |
| COC(=O)c1cc(C(C)=O)c(O)cc1O | 124 to 126 °C |
| O=c1[nH]ccc2c1c(O)nc1cc(Cl)ccc12 | 340 to 342 °C |
| Cc1ccc2c3c(ccc2n1)OCC(CN1C2CCC1CC(O)(c1ccccc1)C2)O3 (stereo not drawn) | 162 to 165 °C |
| O=C(OCC(F)(F)F)c1ncn2c1CN=C(c1ccccc1F)c1cc(Br)ccc1-2 | 223 to 224 °C |
| CC(O)Cn1cnc2c(N)nc3ccccc3c21 (stereo not drawn) | 216 to 221 °C |
| Cc1cc2[nH]ncc2cc1NC1=NCCS1 | 218 to 221 °C |
| CC(=O)c1nc(-c2ccccc2)oc1C | 74 to 76 °C |
| NCCn1c(NC2CCN(Cc3ccccc3)CC2)nc2cccnc21 | 102 °C |
| CC(C)Sc1cccc(-c2nc(=O)c3ccccc3s2)n1 | 185 to 186 °C |
| Cc1cc2c(cc1C(F)(F)F)NC(=O)CC(c1cccc(-c3ccnc(CN(C)CC(C)C)c3)c1)=N2 | 188 °C |
| CCN1CCC2(c3cccc(OC)c3)Cc3[nH]c(C(=O)Nc4ccccc4)c(C)c3CC2C1 (stereo not drawn) | 178 to 180 °C |
| COc1cccc(-c2nn(Cc3ccccc3)c3ncnc(O)c23)c1 | 183 to 185 °C |

| SMILES | melting point |
| --- | --- |
| C=C(C)CCOc1ccc([N+](=O)[O-])cc1Cl | 38 to 39 °C |
| CC(=O)OC1CSC(O)C(OC(C)=O)C1OC(C)=O (stereo not drawn) | 115 °C |
| Clc1cccc(OCCBr)c1Cl | 51 to 56 °C |
| O=C(CN1C(=O)C2(COc3cc4c(cc32)CCO4)c2c(Cl)cccc21)Nc1ccccc1F (stereo not drawn) | 243 to 245 °C |
| NCCOc1ccc2[nH]c3ccccc3c2c1 | 145 to 146 °C |
| CC(C)(C)OC(=O)OCn1c(C(=O)Nc2nc(-c3ccccc3)c(CCO)s2)cc2ccccc21 | 180 to 181 °C |
| CCOc1cc(F)ccc1-c1noc2c(Cl)c(OC)ccc12 | 150 to 152 °C |
| CCCCCCCCCCCCCCCCC#CCC(CO)CO | 55 °C |
| CC(C(=O)OC12CC3CC(CC(C3)C1)C2)c1ccc2nc(N)sc2c1 (stereo not drawn) | 151 to 153 °C |
| CCN1C(=O)C2CCc3c(Br)ccc(OC)c3C2C1=O (stereo not drawn) | 170 to 174 °C |
| O=C(O)C(=O)CC(=O)c1cccn1Cc1ccccc1F | 155 to 156 °C |
| Cc1oc(-c2ccccc2)nc1COc1ccc(Cn2cc(CCC(=O)O)c(-c3ccccc3)c2)cc1 | 124 to 125 °C |
| COc1ccc(C(=O)Nc2cccnc2Cl)cc1 | 125 °C |
| CCOC(=O)c1cc(-c2ccc(OC)cc2)nn(CC=Cc2ccc(Cl)cc2)c1=O | 127 to 128 °C |
| CCc1sc2ncccc2c1S(=O)(=O)Nc1onc(C)c1Cl | 152 to 154 °C |
| Cc1ccc([N+](=O)[O-])c(C)c1CO | 94.5 to 96.1 °C |
| CC(C)(C)OC(=O)N1CCN(c2ccc(N=C(N)c3cccs3)cc2)CC1 | 164 °C |
| NC(=O)c1ncn2c(-c3cccc(C(F)(F)F)c3)ccnc12 | 239 to 240 °C |
| COc1cc(C=O)ccc1OCCBr | 61 to 64 °C |
| Cc1ccc(-c2nsc3[nH]c4ccc(C)cc4c(=O)c23)cc1 | 330 °C |
| COC1=CC(=O)c2c(C)cc(C)cc2C1=O | 146 to 148 °C |
| O=[N+]([O-])CCc1[nH]ccc1-c1ccc(I)cc1 | 88 to 89 °C |
| CNCC(O)(Cn1cncn1)c1ccc(Cl)cc1Cl (stereo not drawn) | 98 to 101 °C |
| COCCN(CCOC)CCc1ccc(Nc2ncc3c(n2)-c2ccccc2C(c2cccc(Br)c2)C3)cc1 (stereo not drawn) | 58 to 60 °C |
| CCOC(=O)CCCCCN1C(=O)c2cccc3cc(N)cc(c23)C1=O | 108 to 110 °C |

Reference: a melting point compilation (Tetko et al.; mined from patent text by program, amines drawn as free bases though some values may be those of a salt)
